Patent US20240076314A1 (priority 2020, published 2024)
Where a SMILES comes first, the peptide text is derived from it. Bridges are numbered along the chain shown (N, C = ends).

Target: human nAChR (hnAChR α1/β1/γ/ε-HEK 293 Recombinant Cell Line) (Homo sapiens, UniProt P02708+Q04844+Q07001)
Assay: cell-based

Chain of human nAChR (hnAChR α1/β1/γ/ε-HEK 293 Recombinant Cell Line) (P02708 whole entry, looked up): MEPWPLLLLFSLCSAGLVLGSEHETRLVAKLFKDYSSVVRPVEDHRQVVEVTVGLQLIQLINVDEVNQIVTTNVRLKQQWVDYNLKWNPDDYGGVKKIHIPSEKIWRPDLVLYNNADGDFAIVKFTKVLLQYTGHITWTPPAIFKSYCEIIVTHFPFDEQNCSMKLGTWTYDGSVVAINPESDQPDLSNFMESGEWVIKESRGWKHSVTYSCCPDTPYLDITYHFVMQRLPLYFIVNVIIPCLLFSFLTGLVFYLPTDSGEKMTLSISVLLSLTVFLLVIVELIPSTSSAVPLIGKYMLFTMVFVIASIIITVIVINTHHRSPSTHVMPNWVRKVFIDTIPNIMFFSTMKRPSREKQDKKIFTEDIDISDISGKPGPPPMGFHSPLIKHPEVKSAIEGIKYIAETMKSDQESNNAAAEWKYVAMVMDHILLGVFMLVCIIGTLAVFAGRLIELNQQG
Chain of human nAChR (hnAChR α1/β1/γ/ε-HEK 293 Recombinant Cell Line) (Q04844 whole entry, looked up): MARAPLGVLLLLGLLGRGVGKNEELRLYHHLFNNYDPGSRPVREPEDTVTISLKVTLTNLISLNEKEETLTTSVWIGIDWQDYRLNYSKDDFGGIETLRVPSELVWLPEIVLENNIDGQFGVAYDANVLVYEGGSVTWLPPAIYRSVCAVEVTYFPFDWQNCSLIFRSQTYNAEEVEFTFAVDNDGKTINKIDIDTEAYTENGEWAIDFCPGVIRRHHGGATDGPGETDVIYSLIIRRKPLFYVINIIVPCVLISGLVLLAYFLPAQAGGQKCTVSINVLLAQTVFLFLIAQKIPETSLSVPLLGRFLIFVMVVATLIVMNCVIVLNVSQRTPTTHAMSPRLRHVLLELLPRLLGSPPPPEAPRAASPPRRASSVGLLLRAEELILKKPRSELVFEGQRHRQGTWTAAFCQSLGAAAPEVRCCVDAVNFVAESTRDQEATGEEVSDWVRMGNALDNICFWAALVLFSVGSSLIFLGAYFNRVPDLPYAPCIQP
Chain of human nAChR (hnAChR α1/β1/γ/ε-HEK 293 Recombinant Cell Line) (Q07001 whole entry, looked up): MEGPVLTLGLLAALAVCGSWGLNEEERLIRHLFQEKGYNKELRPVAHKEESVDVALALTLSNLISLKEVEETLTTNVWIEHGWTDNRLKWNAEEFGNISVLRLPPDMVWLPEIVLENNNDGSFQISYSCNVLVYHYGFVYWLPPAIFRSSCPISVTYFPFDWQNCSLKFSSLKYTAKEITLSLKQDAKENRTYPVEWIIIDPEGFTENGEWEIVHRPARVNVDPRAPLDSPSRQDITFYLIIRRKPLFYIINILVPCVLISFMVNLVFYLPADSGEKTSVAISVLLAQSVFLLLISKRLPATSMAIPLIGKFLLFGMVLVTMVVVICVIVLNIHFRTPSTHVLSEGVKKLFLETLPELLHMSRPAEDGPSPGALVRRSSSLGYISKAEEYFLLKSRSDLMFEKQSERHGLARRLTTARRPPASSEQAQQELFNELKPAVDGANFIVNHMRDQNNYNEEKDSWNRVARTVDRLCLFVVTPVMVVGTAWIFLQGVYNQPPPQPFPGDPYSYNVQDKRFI

`CC(=O)N[C@H]1CSSC[C@@H]2NC(=O)[C@H](C)NC(=O)[C@@H]3CCCN3C(=O)[C@H](CC(N)=O)NC(=O)[C@H](CSSC[C@@H](C(N)=O)NC(=O)[C@H](CCCCN)NC(=O)[C@H](Cc3ccc(O)cc3)NC(=O)[C@H](CC(N)=O)NC(=O)[C@H](CCCCN)NC(=O)CNC2=O)NC1=O` [SEQ ID NO: 62, Ac-Cys-Cys-Asn-Pro-Ala-Cys-Gly-Lys-Asn-Tyr-Lys-Cys-NH2] (Ac-CCNPACGKNYKC-NH2; disulfide 1-6, 2-12) showed an IC50 of over 0.1 µM.

`CC(=O)N[C@H]1CSSC[C@@H]2NC(=O)[C@H](C)NC(=O)[C@@H]3CCCN3C(=O)[C@H](CC(N)=O)NC(=O)[C@H](CSSC[C@@H](C(N)=O)NC(=O)[C@H](CO)NC(=O)[C@H](Cc3ccc(O)cc3)NC(=O)[C@H](CC(N)=O)NC(=O)[C@H](CCCCN)NC(=O)CNC2=O)NC1=O` [SEQ ID NO: 60, Ac-Cys-Cys-Asn-Pro-Ala-Cys-Gly-Lys-Asn-Tyr-Ser-Cys-NH2] (Ac-CCNPACGKNYSC-NH2; disulfide 1-6, 2-12) was tested, and the IC50 was over 0.1 µM.
